Assay [1] deals with T1, PTP1B (Homo sapiens, UniProt P18031).
T1 sequence (P18031 1-435): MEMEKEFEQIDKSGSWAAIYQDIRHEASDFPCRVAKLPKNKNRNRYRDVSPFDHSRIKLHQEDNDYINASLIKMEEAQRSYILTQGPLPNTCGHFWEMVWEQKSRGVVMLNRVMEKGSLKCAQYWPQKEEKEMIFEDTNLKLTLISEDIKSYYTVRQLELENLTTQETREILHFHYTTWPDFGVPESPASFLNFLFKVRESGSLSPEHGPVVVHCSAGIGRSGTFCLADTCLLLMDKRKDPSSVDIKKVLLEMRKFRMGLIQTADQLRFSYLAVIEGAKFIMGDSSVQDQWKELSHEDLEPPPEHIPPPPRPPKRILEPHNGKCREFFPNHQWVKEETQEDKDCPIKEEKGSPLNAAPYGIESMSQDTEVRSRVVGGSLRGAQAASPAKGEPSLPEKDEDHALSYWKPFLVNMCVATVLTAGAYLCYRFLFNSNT
In words: FP-based library screening (fluorescence polarization displacement). Type of assay: binding. How it is done:
(§1) The library screening assay was carried out on a Tecan Genesis workstation with a 96-channel tip block with fixed tips. Before the screening, the library compounds were diluted from the DMSO stock solution into 3,3-dimethylglutarate buffer (50 mM 3,3-dimethylglutarate buffer, pH 7.0, containing 1 mM EDTA with an ionic strength of 0.15 M adjusted by addition of NaCl), resulting in a set of six daughter plates with an ~75 nM concentration of each compound in each well. In the first screen, PTP1B or TCPTP (2 μM in 50 mM 3,3-dimethylglutarate buffer, 50 μL, pH 7.0, containing 1 mM EDTA with an ionic strength of 0.15 M adjusted by addition of NaCl) was dispensed into each well of a 384-well plate, and then 2 μL of the fluorescein-tagged library compounds were transferred from four 96-well intermediate plates to the 384-well plate (final compound concentration ~3 nM). The fluorescence polarization values (A1) were recorded on an Envision 2021 Multilabel Microplate Reader (Perkin-Elmer). In the second screen, 50 μL of a mixture of 2 μM PTP1B or TCPTP and 500 μM Fmoc-F2Pmp-OH (as a competitive ligand) in 3,3-dimethylglutarate buffer (50 mM 3,3-dimethylglutarate buffer, pH 7.0, containing 1 mM EDTA with an ionic strength of 0.15 M adjusted by addition of NaCl) were dispensed into each well of another 384-well plate, followed by the addition of 2 μL of the fluorescein tagged library compounds (75 nM in 3,3-dimethylglutarate buffer, pH 7.0, containing 1 mM EDTA with an ionic strength of 0.15 M adjusted by addition of NaCl). The fluorescence polarization values (A2) were again measured. A displacement percentage was calculated for each library compound as (A1−A2)/(A1−A0)×100%, where A1 and A2 are the fluorescence anisotropy values of each sample as described, and A0 is the fluorescence anisotropy of free library compounds in 3,3-dimethylglutarate buffer. To simplify the calculation, A0 was set to 30. The binding affinity ranking of each compound was determined on the displacement percentage: the […] the displacement percentage, the higher the binding affinity.
(§2) The library was screened using the same protocol as the library 1, except that 0.5 μM PTP1BB/TC-PTP and 1.5 mM competitive ligand Fmoc-F2Pmp-OH were used.
(§3) The library was screened using the same protocol as the library 1, except that 0.5 μM PTP1B/TC-PTP and 5 μM ((4-((S)-2-((S)-2-acetamido-3-phenylpropanamido)-3-(((S)-1-amino-6-(3-bromo-4-methylbenzamido)-1-oxohexan-2-yl)amino)-3-oxopropyl)phenyl)difluoromethyl)phosphonic acid (as a competitor) were used.

Assay [2] concerns the target T2, TC-PTP (Homo sapiens, UniProt P17706).
T2 sequence (P17706 1-415): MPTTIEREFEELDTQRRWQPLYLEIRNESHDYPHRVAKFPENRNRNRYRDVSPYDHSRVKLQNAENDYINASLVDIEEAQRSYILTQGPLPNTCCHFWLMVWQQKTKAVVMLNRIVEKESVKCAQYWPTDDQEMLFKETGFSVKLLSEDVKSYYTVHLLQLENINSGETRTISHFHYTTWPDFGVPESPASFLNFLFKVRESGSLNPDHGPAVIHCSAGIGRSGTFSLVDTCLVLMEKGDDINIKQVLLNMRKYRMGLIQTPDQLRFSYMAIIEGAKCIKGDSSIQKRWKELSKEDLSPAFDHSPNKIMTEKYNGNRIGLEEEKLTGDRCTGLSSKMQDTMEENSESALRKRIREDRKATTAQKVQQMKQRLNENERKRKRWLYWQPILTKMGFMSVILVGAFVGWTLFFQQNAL
The assay is described as above. The format is binding. On the procedure:
as §1, §2, §3

Assay [3] concerns the target T1, PTP1B. Nature of the assay: PTP activity assay with pNPP substrate (IC50, Ki, mode of inhibition). Type of assay: biochemical. How it is done:
(§4) PTP activity was assayed using p-nitrophenyl phosphate (pNPP) as a substrate in DMG buffer (50 mM DMG. pH 7.0, 1 mM EDTA, 150 mM NaCl, 2 mM DTT, 0.1 mg/mL BSA) at 25° C. The assays were performed in 96-well plates. Normally, to determine the IC50 values, the reaction was initiated by the addition of enzyme (for PTP1B and TCPTP, the final concentration was 0.4 nM, for other PTPs, the final concentration was 10 nM) to a reaction mixture (0.2 mL) containing 2 mM (Km for the substrate) pNPP with various concentrations of inhibitors (see FIG. 1). The reaction rate was measured using a SpectraMax Plus 384 Microplate Spectrophotometer (Molecular Devices). Data were fitted using SigmaPlot Enzyme Kinetics Module (Systat Software, Inc.). To determine the mode of inhibition, the reactions were initiated by the addition of enzyme (final concentration for TC-PTP and PTP1B was 0.4 nM) to the reaction mixtures (0.2 mL) containing various concentrations of pNPP with different concentrations of the inhibitor. Data were fitted using SigmaPlot Enzyme Kinetics Module (Systat Software. Inc.).

Assay [4] has as its target T2, TC-PTP. The description is as above. Type of assay: biochemical. On the procedure:
as §4

Assay [5] addresses T1, PTP1B. Nature of the assay: Degradation assay in HEK293 cells (immunoblotting). The arrangement: endogenous in cells; host or cells: HEK293. The format is cell-based. The following applies: 0.2 μM degrader, 16 hours. How it is done: (§5) HEK293. MIAPaCa-2, HepG2, U2OS, H116, MEF, B16F10, and MC38 cells, were grown in DMEM, while Jurkat and H358 cells were grown in RPMI 1640 supplemented with 10% fetal bovine serum, penicillin (50 units/mL), and streptomycin (50 μg/mL) in a 37° C. incubator containing 5% CO2. 20 ng/ml human (Biolegend #713906) or mouse (Biolegend #714006) Interferon-γ were used for JAK/STAT pathway stimulation.
(§6) Tissues or cultured cells were lysed with ice-cold lysis buffer (50 mM Tris (pH 8.0, 150 mM NaCl, 10% Glycerol, 1% Triton-X-100) supplied with phosphatase inhibitor (Bimake) and protease inhibitor mixture (Roche Applied Science). Equal amounts of protein were resolved by SDS-PAGE, transferred to nitrocellulose membrane, and subjected to immunoblotting. Antibodies used in this study include anti-following proteins: pSTAT1^Tyr701 (Cell Signaling Technology #9167, 1:3000), GAPDH (Cell Signaling Technology #97166, 1:5000), pJAK1^Tyr1034/1035 (Cell Signaling Technology #74129, 1:1000), pJAK2^Tyr1007/1008 (Cell Signaling Technology #3776, 1:1000), TC-PTP (Abcam #ab180764, 1:3000). PTP1B (Abcam #ab244207, 1:1500).
(§7) Degradation assay was conducted in HEK293 cells with 1 μM degrader and 24 hours incubation.
(§8) The degradation assay was conducted in HEK293 cells with 0.2 μM degrader and 16 hours incubation.
Background: In western blotting, separated proteins are transferred to a membrane and probed.

Assay [6] deals with T2, TC-PTP. Nature of the assay: Degradation assay in HEK293 cells (immunoblotting). The format is cell-based. The arrangement: endogenous in cells; host or cells: HEK293. The following applies: 0.2 μM degrader, 16 hours, read-out: % Protein Degradation TC-PTP. How it is done: as §5, §6, §7, §8
[7] abbreviates: library 3, 0.5 μM enzyme, 5 μM Example 6 compound as competitor.
Setting [8] is: library 2, 0.5 μM enzyme, 1.5 mM Fmoc-F2Pmp-OH.
Where [9] appears, read: library 1, 2 μM PTP1B, 500 μM Fmoc-F2Pmp-OH competitive ligand, smaller = higher affinity.
Setting [10] is: library 1, 2 μM TCPTP, 500 μM Fmoc-F2Pmp-OH competitive ligand, smaller = higher affinity.

As for “2-(3-fluoro-4- hydroxyphenyl)acetic acid”, on PTP1B [1] (setting [7]), the “Displacement %, PTP1B” value is reported as 72%. Moreover, the “Displacement %, TC-PTP” value at TC-PTP [2] (setting [7]) was 75%.
On to “2-(4-chloro-2- methylphenoxy)acetic acid”, for which the “Displacement %, PTP1B” value on PTP1B [1] (setting [8]) is 57%. The “Displacement %, TC-PTP” value at TC-PTP [2] (setting [8]) was determined as 55%.
Consider 3-bromo-4- methylbenzoic acid, for which, on PTP1B [1] (setting [9]), the “Displacement %, PTP1B” value was found to be 34%. In addition, on TC-PTP [2] (setting [10]), the “Displacement %, TC-PTP” value was 39%.
What is called IC50 is the concentration at which inhibition is half-maximal. Read a low IC50 as inhibition by little substance. On to `COc1cc(CC(=O)N[C@@H](Cc2ccccc2)C(=O)N[C@@H](Cc2ccc(C(F)(F)P(=O)(O)O)cc2)C(=O)N[C@@H](CCCCNC(=O)c2ccc(C)c(Br)c2)C(=O)NCc2ccccc2CCC(=O)N[C@H](C(=O)N2C[C@H](O)C[C@H]2C(=O)NCc2ccc(-c3scnc3C)cc2)C(C)(C)C)ccc1O` (stereo in doubt) [Compound 40, ((4-((S)-3-(((S)-6-(3-bromo-4-methylbenzamido)-1-((2-(3-(((S)-1-((2S,4R)-4-hydroxy-2-((4-(4-methylthiazol-5-yl)benzyl)carbamoyl)pyrrolidin-1-yl)-3,3-dimenthyl-1-oxobutan-2-yl)amino)-3-oxopropyl)benzyl)amino)-1-oxohexan-2-yl)amino)-2-((S)-2-(2-(4-hydroxy-3-methoxyphenyl)acetamido)-3-phenylpropanamido)-3-oxopropyl)phenyl)difluoromethyl)phosphonic Acid], for which the results for the IC50 on PTP1B [3] and against TC-PTP [4] were 3.8 ± 0.4 nM and 2.9 ± 0.5 nM, respectively. Moreover, on PTP1B [5], the “% Protein Degradation PTP1B” value stood at 16%. The percent TC-PTP degradation at 0.2 µM at TC-PTP [6] is 0%.
For `CN(C)c1ccc(CC(=O)O)cc1` [2-(4-(dimethylamino)phenyl) acetic acid], the “Displacement %, PTP1B” value at PTP1B [1] (setting [7]) turned out to be 81%. The “Displacement %, TC-PTP” value on TC-PTP [2] (setting [7]) came out at 79%.
As for `O=C(O)Cc1ccc(Br)cc1` [2-(4-bromophenyl)acetic acid], at PTP1B [1] (setting [7]), the “Displacement %, PTP1B” value was 77%. In addition, the “Displacement %, TC-PTP” value on TC-PTP [2] (setting [7]) was found to be 77%.
On to `COc1cc(CC(=O)O)ccc1O` [2-(4-hydroxy-3-methoxyphenyl)acetic acid], for which the “Displacement %, PTP1B” value on PTP1B [1] (setting [7]) stood at 51%. The “Displacement %, TC-PTP” value on TC-PTP [2] (setting [7]) amounted to 54%.
For `O=C(O)Cc1ccc(O)cc1` [2-(4-hydroxyphenyl)acetic acid], the “Displacement %, PTP1B” value on PTP1B [1] (setting [7]) turned out to be 66%. In addition, the “Displacement %, TC-PTP” value at TC-PTP [2] (setting [7]) stood at 62%.
As for `Cc1ccc(CCC(=O)O)cc1` [3-(p-tolyl)propanoic acid], the “Displacement %, PTP1B” value on PTP1B [1] (setting [8]) came to 47%. For the same compound, the “Displacement %, TC-PTP” value on TC-PTP [2] (setting [8]) was determined as 53%.
For the compound `COc1ccc(C(=O)O)cc1F` [3-fluoro-4-methoxybenzoic acid], the “Displacement %, PTP1B” value on PTP1B [1] (setting [9]) is given as 57%. Moreover, the “Displacement %, TC-PTP” value at TC-PTP [2] (setting [10]) is 54%.
On to `COc1cc(C(=O)O)ccc1[N+](=O)[O-]` [3-methoxy-4-nitrobenzoic acid], for which the “Displacement %, PTP1B” value at PTP1B [1] (setting [9]) was determined as 41%. Further, the “Displacement %, TC-PTP” value at TC-PTP [2] (setting [10]) was found to be 40%.
The corresponding values for `O=C(O)c1ccsc1` [3-thiophenecarboxylic acid] are 45% and 51%.
The corresponding values for `O=C(O)c1ccc(F)cc1` [4-fluorobenzoic acid] are 44% and 46%.
`CCOC(=O)N[C@@H](Cc1ccccc1)C(=O)O` [(ethoxycarbonyl)-L- phenylalanine]: the “Displacement %, PTP1B” value on PTP1B [1] (setting [8]) was determined as 44%. Further, the “Displacement %, TC-PTP” value at TC-PTP [2] (setting [8]) is listed as 41%.
The corresponding values for `CC(=O)N[C@@H](Cc1ccccc1)C(=O)O` [acetyl-L-phenylalanine] are 37% and 41%.
Regarding “(S)-2-acetamido-3-(4- fluorophenyl)propanoic acid”, the “Displacement %, PTP1B” value at PTP1B [1] (setting [8]) was 45%. At TC-PTP [2] (setting [8]), the “Displacement %, TC-PTP” value was 45%.

The values above are taken from patent publication US20260240878A1, “PTP1B/TC-PTP DUAL INHIBITORS AND PROTEIN DEGRADERS” (Purdue Research Foundation, priority 2023, published 2026).
